Patent US20160166604A1, “Thiol-Sensitive Positive Inotropes” (priority 2005, published 2016)
Entries after “also recorded” stand apart in the source; their conditions may differ.

Assays:
[1] = system: isolated mouse ventricular myocytes; experiment: Sarcomere shortening in field-stimulated isolated mouse ventricular myocytes; format: cell-based
Protocol: Wild type 2-4 month old mice were anesthetized with intraperitoneal pentobarbital sodium (100 mg/kg/ip). Hearts were perfused as previously described. Mongillo, M. et al., Circ. Res., 98, 226-234 (2006). To assess for sarcomere shortening, cells were imaged using field stimulation (Warner instruments) in an inverted fluorescence microscope (Diaphot 200; Nikon, Inc). Sarcomere length was measured by real-time Fourier transform (IonOptix MyoCam, CCCCD100M) and cell twitch amplitude is expressed as a percentage of resting cell length. Twitch kinetics was quantified by measuring the time to peak shortening and the time from peak shortening to 50% relaxation. For whole calcium transient measurements, myocytes were loaded with the Ca^2+ indicator fluo-4/AM (Molecular Probes, 20 μM for 30 min) and Ca^2+ transients were measured under field-stimulation at 0.5 Hz in perfusion solution by confocal laser scanning microscope (LSM510, Carl Zeiss). Digital image analysis used customer-designed programs coded in Interactive Data Language (IDL).
Nitroxyl (HNO) confers positive inotropy in vivo. Here, it was determined whether HNO action stems from a direct influence on sarcoplasmic reticulum (SR) Ca^2+ cycling, involving enhanced Ca^2+ release from ryanodine receptors (RyR2). Myocytes were isolated from ST mice, suspended in Tyrode's solution (1 mM Ca^2+) and field stimulated (0.5 Hz, 25° C.). Sarcomere shortening (SS) was assessed by real-time image analysis, Ca^2+ transients from Indo-1 fluorescence. RyR2 activity was determined by optical imaging of Ca^2+ release from single Ca^2+ release units.

RyR2 = molecular target: T1, RyR2 (Mus musculus, UniProt E9Q401); experiment: Spontaneous Ca2+ sparks and spark frequency in intact murine myocytes; format: cell-based; conditions: for effect on Ca2+ sparks in control and AS (0.5 mM) cells: thapsigargin 10 μM, 30 min, ryanodine 10 μM
T1 construct: endogenous in cells; host or cells: freshly isolated adult mouse cardiac myocytes
T1 sequence (E9Q401 whole entry): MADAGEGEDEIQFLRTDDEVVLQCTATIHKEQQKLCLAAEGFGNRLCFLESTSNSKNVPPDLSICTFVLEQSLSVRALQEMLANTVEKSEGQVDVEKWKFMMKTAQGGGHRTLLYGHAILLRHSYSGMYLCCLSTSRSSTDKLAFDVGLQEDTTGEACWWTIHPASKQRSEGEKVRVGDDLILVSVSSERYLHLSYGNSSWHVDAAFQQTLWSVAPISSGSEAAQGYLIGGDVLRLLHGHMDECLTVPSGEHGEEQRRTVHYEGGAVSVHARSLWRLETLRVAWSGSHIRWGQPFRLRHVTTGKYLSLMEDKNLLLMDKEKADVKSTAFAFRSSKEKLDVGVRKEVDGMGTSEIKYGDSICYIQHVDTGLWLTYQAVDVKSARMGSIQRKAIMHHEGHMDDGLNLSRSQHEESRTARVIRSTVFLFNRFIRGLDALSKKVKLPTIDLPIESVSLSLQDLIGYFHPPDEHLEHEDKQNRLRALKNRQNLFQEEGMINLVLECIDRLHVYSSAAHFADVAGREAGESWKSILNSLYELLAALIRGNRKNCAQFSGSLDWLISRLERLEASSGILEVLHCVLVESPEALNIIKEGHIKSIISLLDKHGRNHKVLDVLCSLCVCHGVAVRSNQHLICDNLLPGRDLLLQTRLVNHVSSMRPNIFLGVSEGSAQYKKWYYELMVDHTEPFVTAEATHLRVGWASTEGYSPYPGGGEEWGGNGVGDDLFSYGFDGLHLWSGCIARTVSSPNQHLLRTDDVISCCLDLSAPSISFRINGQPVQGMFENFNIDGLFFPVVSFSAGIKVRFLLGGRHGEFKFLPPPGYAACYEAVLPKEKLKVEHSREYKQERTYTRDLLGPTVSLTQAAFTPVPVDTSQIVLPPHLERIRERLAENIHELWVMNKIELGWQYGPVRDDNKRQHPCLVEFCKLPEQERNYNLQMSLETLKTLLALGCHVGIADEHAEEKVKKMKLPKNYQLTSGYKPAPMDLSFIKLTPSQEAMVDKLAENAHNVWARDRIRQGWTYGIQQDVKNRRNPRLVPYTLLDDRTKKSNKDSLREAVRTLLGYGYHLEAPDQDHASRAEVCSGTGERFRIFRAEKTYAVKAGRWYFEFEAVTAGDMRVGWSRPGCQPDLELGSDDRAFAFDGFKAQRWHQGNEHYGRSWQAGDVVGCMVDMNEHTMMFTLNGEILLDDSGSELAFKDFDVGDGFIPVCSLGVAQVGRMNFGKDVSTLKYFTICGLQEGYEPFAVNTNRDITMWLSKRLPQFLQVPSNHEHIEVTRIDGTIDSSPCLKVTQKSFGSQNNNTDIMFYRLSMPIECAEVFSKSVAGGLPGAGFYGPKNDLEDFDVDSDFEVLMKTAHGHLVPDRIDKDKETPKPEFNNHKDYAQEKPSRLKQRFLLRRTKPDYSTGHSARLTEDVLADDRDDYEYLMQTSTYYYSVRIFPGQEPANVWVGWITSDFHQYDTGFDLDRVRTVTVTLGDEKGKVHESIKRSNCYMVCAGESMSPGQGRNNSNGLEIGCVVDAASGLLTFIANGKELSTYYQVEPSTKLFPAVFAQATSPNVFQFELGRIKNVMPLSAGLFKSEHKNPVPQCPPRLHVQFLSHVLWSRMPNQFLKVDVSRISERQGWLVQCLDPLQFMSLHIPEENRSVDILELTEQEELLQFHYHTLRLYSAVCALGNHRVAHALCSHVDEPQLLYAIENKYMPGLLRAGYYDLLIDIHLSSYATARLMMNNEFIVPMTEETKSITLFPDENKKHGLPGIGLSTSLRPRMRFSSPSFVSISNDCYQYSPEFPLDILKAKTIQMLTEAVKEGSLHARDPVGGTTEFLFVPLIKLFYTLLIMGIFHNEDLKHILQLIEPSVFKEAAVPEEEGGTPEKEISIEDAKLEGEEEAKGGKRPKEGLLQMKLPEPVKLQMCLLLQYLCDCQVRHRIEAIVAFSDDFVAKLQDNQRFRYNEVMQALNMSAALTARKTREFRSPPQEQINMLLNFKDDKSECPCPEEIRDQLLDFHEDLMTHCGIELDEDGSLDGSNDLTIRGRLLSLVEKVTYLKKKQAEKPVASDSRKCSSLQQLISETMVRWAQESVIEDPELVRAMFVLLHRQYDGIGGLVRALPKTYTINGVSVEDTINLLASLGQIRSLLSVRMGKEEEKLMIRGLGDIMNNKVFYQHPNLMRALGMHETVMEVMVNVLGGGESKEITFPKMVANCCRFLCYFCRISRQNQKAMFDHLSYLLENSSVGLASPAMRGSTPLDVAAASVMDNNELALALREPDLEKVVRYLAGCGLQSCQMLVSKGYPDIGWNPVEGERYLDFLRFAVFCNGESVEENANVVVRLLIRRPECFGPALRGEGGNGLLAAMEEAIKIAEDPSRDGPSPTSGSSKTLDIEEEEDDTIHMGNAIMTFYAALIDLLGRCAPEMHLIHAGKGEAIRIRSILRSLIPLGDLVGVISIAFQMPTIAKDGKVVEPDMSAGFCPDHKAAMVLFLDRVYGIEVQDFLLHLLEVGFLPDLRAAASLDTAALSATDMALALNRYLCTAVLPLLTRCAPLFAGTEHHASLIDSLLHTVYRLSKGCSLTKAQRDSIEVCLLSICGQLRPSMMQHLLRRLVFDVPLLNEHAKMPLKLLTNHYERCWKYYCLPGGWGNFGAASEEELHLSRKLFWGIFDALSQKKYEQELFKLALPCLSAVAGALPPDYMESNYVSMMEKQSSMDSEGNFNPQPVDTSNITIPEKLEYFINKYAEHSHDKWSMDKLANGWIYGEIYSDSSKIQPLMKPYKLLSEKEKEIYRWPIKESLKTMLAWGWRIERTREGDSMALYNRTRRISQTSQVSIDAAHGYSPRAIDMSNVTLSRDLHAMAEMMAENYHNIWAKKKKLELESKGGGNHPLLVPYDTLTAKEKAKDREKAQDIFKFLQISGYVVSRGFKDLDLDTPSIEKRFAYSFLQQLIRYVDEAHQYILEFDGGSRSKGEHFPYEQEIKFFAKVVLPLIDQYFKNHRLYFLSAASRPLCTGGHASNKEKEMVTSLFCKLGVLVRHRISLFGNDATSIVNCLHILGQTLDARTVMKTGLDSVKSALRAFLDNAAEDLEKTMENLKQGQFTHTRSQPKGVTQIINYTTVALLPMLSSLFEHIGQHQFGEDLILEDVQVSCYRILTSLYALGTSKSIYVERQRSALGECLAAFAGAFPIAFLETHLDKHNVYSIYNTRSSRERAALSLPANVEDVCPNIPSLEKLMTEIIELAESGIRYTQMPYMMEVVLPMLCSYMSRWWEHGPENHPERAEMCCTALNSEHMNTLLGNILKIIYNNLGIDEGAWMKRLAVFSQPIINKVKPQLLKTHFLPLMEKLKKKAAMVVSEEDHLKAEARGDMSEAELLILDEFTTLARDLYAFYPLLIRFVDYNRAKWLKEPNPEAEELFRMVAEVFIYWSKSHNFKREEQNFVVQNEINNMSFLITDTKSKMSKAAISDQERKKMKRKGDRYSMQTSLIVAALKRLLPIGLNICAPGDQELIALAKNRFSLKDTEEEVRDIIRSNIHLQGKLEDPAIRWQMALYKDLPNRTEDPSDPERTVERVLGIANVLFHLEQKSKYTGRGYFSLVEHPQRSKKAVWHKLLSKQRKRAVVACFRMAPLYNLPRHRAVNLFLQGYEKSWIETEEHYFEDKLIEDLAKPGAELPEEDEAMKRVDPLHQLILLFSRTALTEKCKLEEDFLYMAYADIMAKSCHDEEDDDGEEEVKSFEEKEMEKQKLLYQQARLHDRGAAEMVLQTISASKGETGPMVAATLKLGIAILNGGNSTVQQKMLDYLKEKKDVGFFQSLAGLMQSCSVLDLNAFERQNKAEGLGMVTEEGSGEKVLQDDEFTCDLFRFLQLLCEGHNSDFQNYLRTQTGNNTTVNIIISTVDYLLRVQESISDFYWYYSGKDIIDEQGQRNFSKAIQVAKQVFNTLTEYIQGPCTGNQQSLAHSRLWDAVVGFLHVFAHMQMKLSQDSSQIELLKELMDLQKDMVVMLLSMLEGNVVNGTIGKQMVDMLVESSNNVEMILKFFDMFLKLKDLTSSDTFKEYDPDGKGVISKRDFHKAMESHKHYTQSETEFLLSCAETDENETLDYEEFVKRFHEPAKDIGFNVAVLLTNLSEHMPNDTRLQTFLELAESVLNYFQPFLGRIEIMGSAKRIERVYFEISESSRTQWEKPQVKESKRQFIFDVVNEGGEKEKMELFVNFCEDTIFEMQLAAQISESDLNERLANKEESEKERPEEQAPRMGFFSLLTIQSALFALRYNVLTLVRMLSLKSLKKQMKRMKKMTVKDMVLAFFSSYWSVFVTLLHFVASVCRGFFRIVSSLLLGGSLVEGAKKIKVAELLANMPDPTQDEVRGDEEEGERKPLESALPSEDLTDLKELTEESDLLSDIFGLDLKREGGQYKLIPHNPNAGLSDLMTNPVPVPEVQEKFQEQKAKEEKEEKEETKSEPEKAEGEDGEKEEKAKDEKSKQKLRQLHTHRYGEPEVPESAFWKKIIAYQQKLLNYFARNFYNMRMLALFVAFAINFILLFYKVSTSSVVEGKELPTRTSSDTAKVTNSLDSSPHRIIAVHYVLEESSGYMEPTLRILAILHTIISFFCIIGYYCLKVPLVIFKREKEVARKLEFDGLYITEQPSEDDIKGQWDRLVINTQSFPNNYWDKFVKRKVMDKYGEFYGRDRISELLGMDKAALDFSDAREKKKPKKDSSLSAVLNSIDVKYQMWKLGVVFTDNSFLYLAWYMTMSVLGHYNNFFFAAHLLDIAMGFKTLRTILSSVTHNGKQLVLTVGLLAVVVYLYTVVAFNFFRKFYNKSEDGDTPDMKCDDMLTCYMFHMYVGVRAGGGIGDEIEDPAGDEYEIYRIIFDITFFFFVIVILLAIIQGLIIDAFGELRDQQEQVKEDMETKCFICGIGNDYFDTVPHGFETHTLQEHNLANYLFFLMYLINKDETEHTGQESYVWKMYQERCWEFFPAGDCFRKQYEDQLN
Protocol: Freshly isolated mouse cardiac myocytes were loaded with the Ca^2+ indicator fluo-4/AM (Molecular Probes, 20 μM for 30 min). Confocal images were acquired using a confocal laser-scanning microscope (LSM510, Carl Zeiss) with a Zeiss Plan-Neofluor 40× oil immersion objective (NA≈1.3). Fluo-4/AM was excited by an argon laser (488 nm), and fluorescence was measured at >505 nm. Images were taken in the line-scan mode, with the scan line parallel to the long axis of the myocytes. Each image consisted of 512 line scans obtained at 1.92 ms intervals, each comprising 512 pixels at 0.10 μm separation. Digital image analysis used customer-designed programs coded in Interactive Data language (IDL) and a modified spark detection algorithm. Cheng, H. et al., Biophys. J., 76, 606-617 (1999).
Nitroxyl (HNO) confers positive inotropy in vivo. Here, it was determined whether HNO action stems from a direct influence on sarcoplasmic reticulum (SR) Ca^2+ cycling, involving enhanced Ca^2+ release from ryanodine receptors (RyR2). Myocytes were isolated from ST mice, suspended in Tyrode's solution (1 mM Ca^2+) and field stimulated (0.5 Hz, 25° C.). Sarcomere shortening (SS) was assessed by real-time image analysis, Ca^2+ transients from Indo-1 fluorescence. RyR2 activity was determined by optical imaging of Ca^2+ release from single Ca^2+ release units. The HNO donor Angeli's Salt (AS) induced dose-dependent inotropy (SS: 73±31% at 0.5 mM; 131±31% at 1 mM; all n=15, p<0.05 vs. base; <0.1 mM: no effect). In contrast, the NO donor DEA/NO reduced SS by 55-65% at 5-50 μM (both p<0.05 vs. base), with no effect at higher doses. […] However, co-infusion with the thiol-donating compound N-acetyl-L-cysteine (NAC, 3 mM) abolished AS inotropy.

[2] = End-diastolic pressure-volume relationship (EDPVR) in chronically instrumented dogs with pacing-induced cardiac failure; format: in vivo; conditions: CHF dog preparations
Protocol: Adult male mongrel dogs (22-25 kg) were chronically instrumented for pressure-dimension analysis as described. See, Paolocci et al., “Positive Inotropic and Lusitropic Effects of HNO/NO− in Failing Hearts: Independence from Beta-Adrenergic Signaling,” Proc. Natl. Acad. Sci. USA., 100, 5537-5542 (2003); and Senzaki et al., Circulation, 101, 1040-1048 (2000). Animals were anesthetized with 1% to 2% halothane after induction with sodium thiopental (10-20 mg/kg, i.v.). The surgical/experimental animal protocol was approved by the Johns Hopkins University Animal Care and Use Committee. […] Cardiac failure was induced by rapid ventricular pacing for 3 weeks as described. See, Paolocci et al., supra, and Senzaki et al., supra.
Hemodynamic data were digitized at 250 Hz. […] These relations strongly correlate with results from pressure-volume data in normal and failing hearts, as previously validated. Cardiovascular function was assessed by stroke dimension, fractional shortening (stroke dimension/end-diastolic dimension [EDD]), estimated cardiac output (stroke dimension×HR), peak rate of pressure rise (dP/dtmax), end-systolic elastance (Ees, slope of end-systolic pressure-dimension relation [ESPDR]), the slope of dP/dtmax-EDD relation (DEDD) (see, Little, Circ Res., 56:808-815 (1985)), pre-recruitable stroke work (PRSW), (based on dimension-data), estimated arterial elastance (Ea, end systolic pressure/stroke dimension) and estimated total resistance (RT, […]). Ees, DEDD and PRSW provide load-insensitive contractility measures.
The end-diastolic pressure-volume relationship (EDPVR) was determined applying non-linear regression analysis to the end-diastolic pressure and volume points (Ped and Ved, respectively), according to Kass, Cardiol Clin., 18, 571-86 (2000) (Review).
In order to evaluate the impact of each pharmacological intervention on the EDPVR, changes in end-diastolic pressure from baseline (ΔPed) at volumes providing baseline end-diastolic pressure of […] mmHg EDP (V10, V15, V20, respectively) were determined (FIG. 5).

SR Ca2+ pump (SERCA2a) = molecular target: T2, SR Ca2+ pump (SERCA2a) (Mus musculus, UniProt O55143); experiment: ATP-dependent Ca2+ uptake by murine cardiac SR vesicles (stopped-flow, arsenazo III); format: biochemical
T2 construct: Crude cardiac microsomal vesicles containing fragmented sarcoplasmic reticulum (SR) were prepared; from tissue; host or cells: pooled hearts of C57 male mice (crude SR microsomal vesicles)
Protocol: Crude cardiac microsomal vesicles containing fragmented sarcoplasmic reticulum (SR) were prepared as previously described for rat heart. Froehlich, J. P. et al., J. Mol. Cell. Cardiol., 10, 427-438 (1978). Pooled hearts from C57 male mice sacrificed by cervical dislocation were placed in 0.9% saline on ice, trimmed of atrial and connective tissue, and weighed. The finely minced heart muscle was homogenized in 10 mM NaHCO3 using a Polytron blender and the SR vesicles were separated from the myofilaments, mitochondria and nuclear membranes by differential centrifugation at 8,500 and 45,000×g. SR vesicles suspended in 0.25 M sucrose+10 mM MOPS, pH 7.0 were frozen and stored in liquid nitrogen prior to use. Twenty minutes prior to measuring Ca^2+ uptake, cardiac SR vesicles (1 mg/ml in storage buffer) were incubated with 250 μM AS delivered from a freshly-prepared 10 mM stock solution of AS (Na2N2O3) dissolved in 10 mM NaOH. […] Stopped-flow mixing was used to measure the initial time course of Ca^2+ accumulation by murine cardiac SR vesicles using the Ca^2+ indicator dye, arsenazo III. Membrane vesicles (0.4 mg/ml) suspended in a medium containing 100 mM KCl, 1 mM MgCl2, 50 μM arsenazo III, 5 mM sodium azide, and 20 mM MOPS, pH 7.4, were mixed with an equal volume of an identical medium containing 1 mM Na2ATP at 24° C. in a manually-operated stopped-flow apparatus (Applied Photophysics, Ltd.). The change in [Ca^2+] in the mixing cuvette was monitored using a single-beam UV-VIS spectrophotometer (AVIV, Model 14DS) with a monochromator setting of 650 nm. The total [Ca^2+] in the uptake medium was 0.5 μM, yielding a free [Ca^2+] in equilibrium with the Ca-arsenazo III complex of 0.2 μM (KA=3.3×10^4 M^−1). […] The time-dependent decrease in absorbance at 650 nm, reflecting Ca^2+ uptake by the SR vesicles, was monitored for 30-60 s at 0.1 s intervals. […] The signal change due to vesicle light scattering was evaluated from separate measurements conducted under identical conditions at the isosbestic wavelength of 693 nm. For evaluation of the time course of Ca^2+ uptake, a representative trace at 693 nm was subtracted from each of the individual traces at 650 nm acquired under identical conditions. The kinetic and thermodynamic parameters for Ca^2+ uptake were evaluated by fitting stopped-flow signals to one- and two-exponential decay functions plus a residual term using non-linear regression (Prism, Version 3.03). Residual plots of the difference between the fitted curve and data points were used to evaluate systematic errors in the fits and to calculate the sum-of-squares error used in selecting the best fit.
To test whether HNO directly enhances SR Ca^2+ uptake, its effects on SR membrane vesicles isolated from pooled C57/Bl6 mouse hearts were studied. Crude SR microsomal vesicles were incubated with 250 μM AS prior to measuring ATP-dependent Ca uptake by stopped-flow mixing at 24° C. Arsenazo III, a mid-range Ca indicator, was used to monitor Ca removal from the eravesicular compartment and buffer the free [Ca^2+] at a level producing half-saturation of the Ca^2+ pump (˜0.2 μM).

[3] = system: cardiac myocytes from WT and Gαq overexpressing FVB/N mice; experiment: Sarcomere shortening in cardiac myocytes from WT and Gαq overexpressing mice; format: cell-based, mouse; conditions: for enhancement of sarcomere shortening: WT cells
Protocol: Cardiac myocytes were isolated from WT and Gαq overexpressing 2-6 month old FVB/N mice, suspended in Tyrode's solution (1 mM calcium) and field stimulated at 0.5 Hz at 23° C. Sarcomere shortening (SS) was assessed by real-time image analysis; data are presented at steady-state (10 minutes drug infusion).

Compound: CCN(CC)[N+]([O-])=N[O-].[Na+] [DEA/NO, sodium 2-(N,N-diethylamino)-diazenolate-2-oxide]
- effect of co-application on ISO (2.5 nM)-stimulated sarcomere shortening ([1]; DEA/NO 0.25 mM, AS 0.5 mM): markedly blunted
- reduction of sarcomere shortening ([1]; DEA/NO 5-50 μM): 55-65%
- effect of PKG inhibitor Rp-8Br-cGMPs on the agent's inotropy ([1]; Rp-8Br-cGMPs 10 μM pre-treatment): modest positive response
- reproduction of AS increase in sarcomere shortening by equimolar NO donor ([1]; equimolar to AS): not reproduced
- effect on sarcomere shortening ([1]; higher doses): no effect; also recorded: minimal changes
- effect on sarcomere shortening ([1]; low doses): slight depression
- effect on Ca2+ spark frequency (RyR2; DEA/NO, increasing / equimolar doses): no effect; also recorded: did not significantly affect
- effect on end-diastolic pressure-volume relationship (EDPVR) [2]: parallel down-ward shift

Compound: O=NO [NO2^−, nitrite]
- effect on sarcomere shortening ([1]; 25-250 μM NO2- and higher or lower doses): no effect

Compound: C/C=C(/C)C(=O)O[C@H]1C(C)=C2[C@H]([C@@H]1OC(=O)CCCCCCC)[C@@](C)(OC(C)=O)C[C@H](OC(=O)CCC)[C@@]1(O)[C@H]2OC(=O)[C@@]1(C)O [thapsigargin]
- effect on Ca2+ sparks in control and AS (0.5 mM) cells (RyR2): abolished
- effect on SR vesicle Ca2+ uptake (SR Ca2+ pump (SERCA2a); thapsigargin 10 μM): abolished

Compound: ryanodine
- effect on Ca2+ sparks in control and AS (0.5 mM) cells (RyR2): abolished

Compound: CNc1ccc2oc(C[C@H]3O[C@@]4(CC[C@H]3C)O[C@H]([C@H](C)C(=O)c3ccc[nH]3)[C@H](C)C[C@H]4C)nc2c1C(=O)O [A23187]
- decrease of total Ca2+ uptake (SR Ca2+ pump (SERCA2a); A23187 pre-incubation, 5 μg ionophore/mg SR protein): > 50%

Compound: CC(C)NCC(O)c1ccc(O)c(O)c1 (centres unmarked) [ISO, isoproterenol]
- increase in sarcomere shortening ([1]; ISO 2.5 nM, n=30): 100±27%
- effect of PKA inhibitor Rp-CPT-cAMPs on the agent's enhancement of sarcomere shortening ([1]; Rp-CPT-cAMPs 100 μM pre-treatment): blunts
- contractile response ([3]; Gαq myocytes, ISO 2.5 and 10 nM): did not elicit any contractile response
- enhancement of sarcomere shortening ([3]; ISO 2.5 nM): 74±24%
- enhancement of sarcomere shortening ([3]; ISO 10 nM): 250±75%

Compound: CC(C)N[N+]([O-])=N[O-].[Na+] [IPA/NO, isopropylamine diazeniumdiolate]
- effect on end-diastolic pressure-volume relationship (EDPVR) [2]: downward shift; also recorded: declined significantly

Compound: C=C[C@@]1(C)CC(=O)[C@]2(O)[C@@]3(C)[C@@H](O)CCC(C)(C)[C@@H]3[C@H](O)[C@H](OC(C)=O)[C@@]2(C)O1 [FSK, forskolin]
- increase in sarcomere shortening ([3]; Gαq myocytes, 25 nM FSK): 85±9%
- increase in sarcomere shortening ([3]; Gαq myocytes, 100 nM FSK): 158±62%

Compound: O=[N+]([O-])OCC(CO[N+](=O)[O-])O[N+](=O)[O-] [NTG, nitroglycerin]
- effect on end-diastolic pressure-volume relationship (EDPVR) [2]: parallel down-ward shift
- effect on end-diastolic pressure-volume relationship (EDPVR) ([2]; listed as nitroglycerin): parallel downward shift
